PubChem BioAssay AID1745844 (Carcinogenic Potency Database (CPDB), 2022)
“And” between values parts separate entries of the source, which are not always exact repeats. Equal values may be shown once. The source made the active and inactive calls. How the calls were made is not given here.

Test system: rodent lifetime carcinogenesis bioassay, tumor incidence TD50
Experiment: carcinogenic potency in animals, long-term in vivo studies, CPDB compilation (AID 1745844)

O=C1CCc2ccccc2O1
TD50 (mouse, strain B6C3F1, females, by gavage, site: all sites, lesion: hemangioma + hemangiosarcoma, dosed 103 weeks, study length 104 weeks): 4810 mg/kg/day | TD50 (mouse, strain B6C3F1, females, by gavage, site: all sites, lesion: hemangiosarcoma, dosed 103 weeks, study length 104 weeks): 6140 mg/kg/day | TD50 (mouse, strain B6C3F1, females, by gavage, site: any site (literature study), lesion: several types, types named in the paper, dosed 103 weeks, study length 104 weeks): 541 mg/kg/day | TD50 (mouse, strain B6C3F1, females, by gavage, site: liver, lesion: hepatocellular adenoma + hepatoblastoma + hepatocellular carcinoma, dosed 103 weeks, study length 104 weeks): 723 mg/kg/day | TD50 (mouse, strain B6C3F1, females, by gavage, site: liver, lesion: hepatocellular adenoma + hepatocellular carcinoma, dosed 103 weeks, study length 104 weeks): 723 mg/kg/day | TD50 (mouse, strain B6C3F1, females, by gavage, site: liver, lesion: hepatocellular adenoma, dosed 103 weeks, study length 104 weeks): 790 mg/kg/day | TD50 (mouse, strain B6C3F1, females, by gavage, site: lung, lesion: alveolar/bronchiolar adenoma + alveolar/bronchiolar carcinoma, dosed 103 weeks, study length 104 weeks): 96100 mg/kg/day | TD50 (mouse, strain B6C3F1, males, by gavage, site: all sites, lesion: histiocytic sarcoma + malignant lymphoma, histiocytic type + malignant lymphoma, lymphocytic type + malignant lymphoma, dosed 103 weeks, study length 104 weeks): 3320 mg/kg/day | TD50 (mouse, strain B6C3F1, males, by gavage, site: all sites, lesion: malignant lymphoma, histiocytic type + malignant lymphoma, mixed type + malignant lymphoma, lymphocytic type + malignant lymph, dosed 103 weeks, study length 104 weeks): 3780 mg/kg/day (inactive) | TD50 (mouse, strain B6C3F1, males, by gavage, site: any site (literature study), lesion: several types, types named in the paper, dosed 103 weeks, study length 104 weeks): 1400 mg/kg/day | TD50 (mouse, strain B6C3F1, males, by gavage, site: liver, lesion: hepatocellular adenoma + hepatoblastoma + hepatocellular carcinoma, dosed 103 weeks, study length 104 weeks): 2890 mg/kg/day | TD50 (mouse, strain B6C3F1, males, by gavage, site: lung, lesion: alveolar/bronchiolar adenoma + alveolar/bronchiolar carcinoma, dosed 103 weeks, study length 104 weeks): 3260 mg/kg/day | TD50 (mouse, strain B6C3F1, males, by gavage, site: lung, lesion: alveolar/bronchiolar adenoma, dosed 103 weeks, study length 104 weeks): 596 mg/kg/day | TD50 (rat, strain Fischer 344, females, by gavage, site: adrenal medulla, lesion: pheochromocytoma benign, bilateral + pheochromocytoma, benign, dosed 103 weeks, study length 104 weeks): 538 mg/kg/day (inactive) | TD50 (rat, strain Fischer 344, females, by gavage, site: any site (literature study), lesion: several types, types named in the paper, dosed 103 weeks, study length 104 weeks): 3180 mg/kg/day | TD50 (rat, strain Fischer 344, males, by gavage, site: any site (literature study), lesion: several types, types named in the paper, dosed 38 weeks, study length 104 weeks): 1370 mg/kg/day | TD50 (rat, strain Fischer 344, males, by gavage, site: any site (literature study), lesion: several types, types named in the paper, dosed 64 weeks, study length 104 weeks): 186 mg/kg/day | TD50 (rat, strain Fischer 344, males, by gavage, site: any site (literature study), lesion: several types, types named in the paper, dosed 103 weeks, study length 104 weeks): 143 mg/kg/day | TD50 (rat, strain Fischer 344, males, by gavage, site: kidney, lesion: transitional-cell carcinoma, dosed 103 weeks, study length 104 weeks): 11800 mg/kg/day | TD50 (rat, strain Fischer 344, males, by gavage, site: kidney, lesion: tubule adenoma, dosed 38 weeks, study length 104 weeks): 310 mg/kg/day | TD50 (rat, strain Fischer 344, males, by gavage, site: kidney, lesion: tubule adenoma, dosed 64 weeks, study length 104 weeks): 408 mg/kg/day | TD50 (rat, strain Fischer 344, males, by gavage, site: kidney, lesion: tubule adenoma, dosed 103 weeks, study length 104 weeks): 3870 mg/kg/day and 2970 mg/kg/day | TD50 (rat, strain Fischer 344, males, by gavage, site: liver, lesion: hepatocellular adenoma + hepatoblastoma + hepatocellular carcinoma, dosed 38 weeks, study length 104 weeks): 819 mg/kg/day | TD50 (rat, strain Fischer 344, males, by gavage, site: liver, lesion: hepatocellular adenoma + hepatoblastoma + hepatocellular carcinoma, dosed 103 weeks, study length 104 weeks): 1380 mg/kg/day | TD50 (rat, strain Fischer 344, males, by gavage, site: skin, lesion: basal-cell adenoma + keratoacanthoma + squamous-cell papilloma, dosed 64 weeks, study length 104 weeks): 258 mg/kg/day | TD50 (rat, strain Fischer 344, males, by gavage, site: skin, lesion: basal-cell adenoma, dosed 64 weeks, study length 104 weeks): 378 mg/kg/day | TD50 (rat, strain Fischer 344, males, by gavage, site: skin, lesion: fibroma, dosed 64 weeks, study length 104 weeks): 403 mg/kg/day | TD50 (rat, strain Fischer 344, males, by gavage, site: testis, lesion: interstitial-cell adenoma, dosed 64 weeks, study length 104 weeks): 51.7 mg/kg/day | TD50 (rat, strain Fischer 344, males, by gavage, site: testis, lesion: interstitial-cell adenoma, dosed 103 weeks, study length 104 weeks): 70.6 mg/kg/day

CCN(CC)C(=S)S
TD50 (mouse, strain B6AKF1, females, oral dosing, site: lung, lesion: adenoma, dosed 76 weeks, study length 76 weeks): 607 mg/kg/day | TD50 (mouse, strain B6AKF1, males, oral dosing, site: any site (literature study), lesion: several types, types named in the paper, dosed 76 weeks, study length 76 weeks): 403 mg/kg/day | TD50 (mouse, strain B6AKF1, males, oral dosing, site: lung, lesion: adenoma, dosed 76 weeks, study length 76 weeks): 155 mg/kg/day | carcinogen call (mouse, strain B6C3F1, females, in feed, site: any site (literature study), lesion: several types, types named in the paper, dosed 108 weeks, study length 108 weeks): negative (inactive) | TD50 (mouse, strain B6C3F1, females, in feed, site: liver, lesion: hepatocellular adenoma + hepatocellular carcinoma + neoplastic nodule, dosed 108 weeks, study length 108 weeks): 27000 mg/kg/day | TD50 (mouse, strain B6C3F1, females, in feed, site: lung, lesion: alveolar/bronchiolar adenoma + alveolar/bronchiolar carcinoma, dosed 108 weeks, study length 108 weeks): 4760 mg/kg/day | carcinogen call (mouse, strain B6C3F1, males, in feed, site: any site (literature study), lesion: several types, types named in the paper, dosed 108 weeks, study length 108 weeks): negative (inactive) | TD50 (mouse, strain B6C3F1, males, in feed, site: lung, lesion: alveolar/bronchiolar adenoma + alveolar/bronchiolar carcinoma, dosed 108 weeks, study length 108 weeks): 10300 mg/kg/day | TD50 (mouse, strain B6C3F1, males, oral dosing, site: any site (literature study), lesion: several types, types named in the paper, dosed 76 weeks, study length 76 weeks): 71.4 mg/kg/day | TD50 (mouse, strain B6C3F1, males, oral dosing, site: liver, lesion: hepatoma, dosed 76 weeks, study length 76 weeks): 68.7 mg/kg/day | TD50 (mouse, strain B6C3F1, males, oral dosing, site: lung, lesion: adenoma, dosed 76 weeks, study length 76 weeks): 468 mg/kg/day | carcinogen call (rat, strain Fischer 344, females, in feed, site: any site (literature study), lesion: several types, types named in the paper, dosed 104 weeks, study length 104 weeks): negative (inactive) | carcinogen call (rat, strain Fischer 344, males, in feed, site: any site (literature study), lesion: several types, types named in the paper, dosed 104 weeks, study length 104 weeks): negative (inactive)
